Active and inactive are the calls of the source.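 How the source made its calls: active means mean IC50 for reducing PEG3 promoter reporter signal at or below a set limit, with IC50 above the limit in both counter screens; inactive means the rest, including counter screen hits.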

Assay [1] addresses PEG-3 (UniProt Q6IN02). The assay is described as follows: Peg3 promoter luciferase inhibitors, potency, dose response, cell-based, HeLa, CREF/GAPDH counter-screen panel (AID 624167). The conditions noted are these: HeLa PEG-Prom luciferase reporter, overnight, CREF/GAPDH counter-screens, mean of runs.
Assay [2] concerns PEG-3. The description is as above. The conditions noted are these: HeLa PEG-Prom luciferase reporter, overnight, CREF/GAPDH counter-screens. A general note: A reporter such as luciferase makes a cellular process visible.
Where [3] appears, read: run 1, dose range 1, individual replicate IC50 per panel.
Setting [4] is: run 2, dose range 1, individual replicate IC50 per panel.

PEG-3 (UniProt Q6IN02), sequence (Q6IN02 whole entry, looked up): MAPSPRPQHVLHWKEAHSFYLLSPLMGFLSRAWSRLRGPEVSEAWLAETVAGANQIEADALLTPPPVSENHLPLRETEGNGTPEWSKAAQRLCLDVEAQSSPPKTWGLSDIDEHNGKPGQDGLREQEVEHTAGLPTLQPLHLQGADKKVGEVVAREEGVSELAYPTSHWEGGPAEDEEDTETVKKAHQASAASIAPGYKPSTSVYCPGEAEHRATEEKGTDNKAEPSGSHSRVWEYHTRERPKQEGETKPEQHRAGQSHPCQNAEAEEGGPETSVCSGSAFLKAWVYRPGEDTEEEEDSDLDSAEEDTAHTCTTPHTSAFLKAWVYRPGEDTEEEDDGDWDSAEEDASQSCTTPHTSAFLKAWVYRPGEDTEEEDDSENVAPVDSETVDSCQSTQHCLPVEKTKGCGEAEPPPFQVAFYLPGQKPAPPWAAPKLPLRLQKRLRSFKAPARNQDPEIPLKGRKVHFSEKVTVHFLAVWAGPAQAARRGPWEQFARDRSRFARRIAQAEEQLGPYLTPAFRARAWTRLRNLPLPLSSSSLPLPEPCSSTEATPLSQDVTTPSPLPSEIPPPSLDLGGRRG

In the case of `CC(C)N1CCc2c(sc(NC(=O)c3cc4cc([N+](=O)[O-])ccc4s3)c2C(N)=O)C1`, the IC50 result on PEG-3 [1] is “inactive”. Also, the IC50 in the assay with PEG-3 [2] (setting [3]) came to 22.5 µM; with PEG-3 [2] (setting [4]) it was 17.6 µM.

As to `COc1cc(NC(=O)Nc2nc(C(N)CCc3ccccc3)cs2)cc(OC)c1OC` (stereo not drawn), the IC50 entry on PEG-3 [1] is “inactive”. The IC50 in the assay on PEG-3 [2] (setting [3]) came out at 21.3 µM; with PEG-3 [2] (setting [4]), 40.6 µM.

As for `Cc1ccc(C2=NC(=O)/C(=C/c3cc(O)c(O)c(Br)c3)S2)cc1`, the IC50 result at PEG-3 [1] was “inactive”. Moreover, the IC50 amounted to 17.1 µM in the assay on PEG-3 [2] (setting [3]) and 27.1 µM in the assay on PEG-3 [2] (setting [4]).

For the compound `Cc1cc(C)c2sc(N(CCCN(C)C)C(=O)c3ccc(S(=O)(=O)N(C)Cc4ccccc4)cc3)nc2c1`, the values for the IC50 at PEG-3 [1], in the assay on PEG-3 [2] (setting [3]) and with PEG-3 [2] (setting [4]) were 18.9 µM, 20.3 µM and 17.4 µM, respectively.

Turning to `CCCCCCCCCCCCCCCC(O)C[N+](C)(C)CCO` (stereo not drawn), the 50% inhibitory concentration (IC50) is 13 µM on PEG-3 [1], 17.7 µM in the assay with PEG-3 [2] (setting [3]) and 8.35 µM in the assay on PEG-3 [2] (setting [4]).

As for `OCCN1CCN(C2CCC(c3ccc(F)cc3)c3ccc(F)cc32)CC1` (stereo not drawn), at PEG-3 [1], the IC50 result is “inactive”. Further, the half-maximal inhibitory concentration (IC50) in the assay with PEG-3 [2] (setting [3]) amounted to 20.4 µM; in the assay on PEG-3 [2] (setting [4]) it was 23 µM.

Take `CC(=O)NC(c1ccccc1)c1cc(Cl)c2cccnc2c1O` (stereo not drawn): the figures for the concentration for half-maximal inhibition (IC50) at PEG-3 [1], in the assay with PEG-3 [2] (setting [3]) and in the assay on PEG-3 [2] (setting [4]) were 9.5 µM, 6.33 µM and 12.7 µM, respectively.

For `NC(N)=N/N=C/c1cccc(Cl)c1Cl`, the results for the IC50 at PEG-3 [1], in the assay with PEG-3 [2] (setting [3]) and in the assay with PEG-3 [2] (setting [4]) were 16 µM, 17.4 µM and 14.5 µM, respectively.

Turning to `CCc1ccc(OCCNc2cc(N3CCNC(C)C3)ccc2[N+](=O)[O-])cc1` (stereo not drawn), the IC50 at PEG-3 [1] is 12.7 µM; in the assay on PEG-3 [2] (setting [3]) it was 16.3 µM; in the assay on PEG-3 [2] (setting [4]), 8.98 µM.

As for `O=C(NC(c1ccc(F)cc1)c1ccc2ccccc2n1)C1CCN(Cc2cccc(C(F)(F)F)c2)CC1` (stereo not drawn), the IC50 at PEG-3 [1] was 12.1 µM; with PEG-3 [2] (setting [3]) it was 16.2 µM; in the assay on PEG-3 [2] (setting [4]), 7.91 µM.

`COc1ccc(C(C(=O)NCC2CCCO2)N(Cc2cccs2)C(=O)c2snc(C(N)=O)c2N)cc1` (stereo not drawn): the IC50 entry at PEG-3 [1] was “inactive”. Also, the IC50 in the assay with PEG-3 [2] (setting [3]) is more than 100 µM; in the assay on PEG-3 [2] (setting [4]), 9.42 µM.

Consider `O=C1OCCC1Sc1nnc(-c2ccc(Cl)cc2Cl)o1` (stereo not drawn), for which the IC50 entry at PEG-3 [1] was “inactive”. The half-maximal inhibitory concentration (IC50) was determined as 6.82 µM with PEG-3 [2] (setting [3]) and 35.5 µM with PEG-3 [2] (setting [4]).

`COc1cccc(CN(C)C(=O)c2cc(-c3cccs3)nc3ccccc23)c1`: the IC50 result on PEG-3 [1] was “inactive”. For the same compound, the IC50 was 24.7 µM with PEG-3 [2] (setting [3]) and 30.8 µM in the assay with PEG-3 [2] (setting [4]).

Consider `COc1cccc(C2CC3C(=O)C=CC2N3Cc2ccccc2)c1` (stereo not drawn), for which the IC50 is 13 µM on PEG-3 [1], 11.9 µM in the assay with PEG-3 [2] (setting [3]) and 14.1 µM with PEG-3 [2] (setting [4]).

As to `CCCn1c(=N)n(CC(=O)c2ccc(Cl)cc2)c2ccccc21`, the IC50 result on PEG-3 [1] was “inactive”. Further, the values for the IC50 in the assay with PEG-3 [2] (setting [3]) and in the assay with PEG-3 [2] (setting [4]) were 19.1 µM and 49.4 µM, respectively.

As for `Cn1nnnc1Sc1ncnc2scc(-c3ccsc3)c12`, the values for the IC50 at PEG-3 [1], with PEG-3 [2] (setting [3]) and with PEG-3 [2] (setting [4]) were 11.5 µM, 14.7 µM and 8.36 µM, respectively.

Turning to `COc1cc(NC(=O)c2cccc(C)c2)ccc1NC(=O)c1cc2ccccc2o1`, the IC50 at PEG-3 [1] was 19.3 µM; with PEG-3 [2] (setting [3]) it was 12.9 µM; with PEG-3 [2] (setting [4]), 25.6 µM.

Turning to `C[C@@H](NCCCn1cnc2c(OCc3ccccc3)ncnc21)c1cccc2ccccc12`, the IC50 at PEG-3 [1] was 16.5 µM; in the assay with PEG-3 [2] (setting [3]) it was 17.7 µM; with PEG-3 [2] (setting [4]), 15.2 µM.

`COc1ccc(-c2sc3ccccc3c2-c2ccc(OCCN3CCCCC3)cc2)cc1`: the IC50 entry at PEG-3 [1] is “inactive”. The IC50 was 20.9 µM in the assay with PEG-3 [2] (setting [3]) and 20.2 µM in the assay with PEG-3 [2] (setting [4]).

Take `CCOC(=O)c1c(NC(C)=O)sc2c(OCC(O)CN(CC)CC)c(Br)ccc12` (stereo not drawn): the figures for the concentration for half-maximal inhibition (IC50) at PEG-3 [1], in the assay on PEG-3 [2] (setting [3]) and with PEG-3 [2] (setting [4]) were 13.9 µM, 20.7 µM and 7.1 µM, respectively.

Take `COc1cc2c(cc1OC)CN(c1nc(-c3cccnc3)nc3ccccc13)CC2`: the IC50 entry on PEG-3 [1] was “inactive”. For the same compound, the IC50 in the assay with PEG-3 [2] (setting [3]) is 31.3 µM; with PEG-3 [2] (setting [4]), 63.8 µM.

With `CCN1CCN(c2ncc(C(=O)Nc3cc(Cl)ccc3OC)c3ccccc23)CC1`, the IC50 result on PEG-3 [1] is “inactive”. For the same compound, the IC50 in the assay on PEG-3 [2] (setting [3]) is 26.6 µM; in the assay on PEG-3 [2] (setting [4]) it was 51.4 µM.

Turning to `O=C1NC(=O)N(Cc2ccc(F)cc2)C(=O)/C1=C\C=C\c1ccco1`, the IC50 is 14.9 µM on PEG-3 [1], 16.8 µM with PEG-3 [2] (setting [3]) and 13 µM in the assay on PEG-3 [2] (setting [4]).

Regarding `c1ccc(C[C@H]2CNCCN2CCCCC2CCCCC2)cc1`, the half-maximal inhibitory concentration (IC50) on PEG-3 [1] was 17.5 µM; in the assay with PEG-3 [2] (setting [3]) it was 20.1 µM; in the assay on PEG-3 [2] (setting [4]), 14.8 µM.

For `CN(C)CCCNc1ncnc2oc(-c3ccccc3)c(-c3ccccc3)c12`, the IC50 was 15.7 µM at PEG-3 [1], 16.6 µM with PEG-3 [2] (setting [3]) and 14.8 µM with PEG-3 [2] (setting [4]).

With `CC(Cc1ccccc1)NCCC(c1ccccc1)c1ccccc1` (stereo not drawn), the values for the IC50 on PEG-3 [1], in the assay with PEG-3 [2] (setting [3]) and in the assay on PEG-3 [2] (setting [4]) were 19.5 µM, 19.9 µM and 19.1 µM, respectively.

As usually defined, the IC50 is the point on the concentration scale where inhibition reaches its midpoint.

Values taken from PubChem BioAssay AID624167 (Sanford-Burnham Center for Chemical Genomics, 2012).
